Like-named read-outs stand apart in the source and are kept apart here.
Molecular target: T1, BRM (Homo sapiens, UniProt P51531)
T1 construct: In-Cell Western Screen of BRM Degradation in SW1573 Cells; endogenous in cells; host or cells: SW1573
Assay: In-cell Western screen of BRM degradation in SW1573 cells (Dmax and DC50)
Type: cell-based
Conditions: BRM degradation, SW1573 cells
Method in brief: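 Adherent SW1573 cultures exposed to test compounds for 18-20 h were processed for in-cell Western after PFA fixation and detergent permeabilization. BRM degradation was reported as Dmax and DC50.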

[1] = Table 2D, read-out: **Dmax (%) (% degraded)
[2] = when tested at the top concentration of between 0.3 and 10 μM, read-out: Dmax (%) (% degraded)

T1 sequence (P51531 whole entry): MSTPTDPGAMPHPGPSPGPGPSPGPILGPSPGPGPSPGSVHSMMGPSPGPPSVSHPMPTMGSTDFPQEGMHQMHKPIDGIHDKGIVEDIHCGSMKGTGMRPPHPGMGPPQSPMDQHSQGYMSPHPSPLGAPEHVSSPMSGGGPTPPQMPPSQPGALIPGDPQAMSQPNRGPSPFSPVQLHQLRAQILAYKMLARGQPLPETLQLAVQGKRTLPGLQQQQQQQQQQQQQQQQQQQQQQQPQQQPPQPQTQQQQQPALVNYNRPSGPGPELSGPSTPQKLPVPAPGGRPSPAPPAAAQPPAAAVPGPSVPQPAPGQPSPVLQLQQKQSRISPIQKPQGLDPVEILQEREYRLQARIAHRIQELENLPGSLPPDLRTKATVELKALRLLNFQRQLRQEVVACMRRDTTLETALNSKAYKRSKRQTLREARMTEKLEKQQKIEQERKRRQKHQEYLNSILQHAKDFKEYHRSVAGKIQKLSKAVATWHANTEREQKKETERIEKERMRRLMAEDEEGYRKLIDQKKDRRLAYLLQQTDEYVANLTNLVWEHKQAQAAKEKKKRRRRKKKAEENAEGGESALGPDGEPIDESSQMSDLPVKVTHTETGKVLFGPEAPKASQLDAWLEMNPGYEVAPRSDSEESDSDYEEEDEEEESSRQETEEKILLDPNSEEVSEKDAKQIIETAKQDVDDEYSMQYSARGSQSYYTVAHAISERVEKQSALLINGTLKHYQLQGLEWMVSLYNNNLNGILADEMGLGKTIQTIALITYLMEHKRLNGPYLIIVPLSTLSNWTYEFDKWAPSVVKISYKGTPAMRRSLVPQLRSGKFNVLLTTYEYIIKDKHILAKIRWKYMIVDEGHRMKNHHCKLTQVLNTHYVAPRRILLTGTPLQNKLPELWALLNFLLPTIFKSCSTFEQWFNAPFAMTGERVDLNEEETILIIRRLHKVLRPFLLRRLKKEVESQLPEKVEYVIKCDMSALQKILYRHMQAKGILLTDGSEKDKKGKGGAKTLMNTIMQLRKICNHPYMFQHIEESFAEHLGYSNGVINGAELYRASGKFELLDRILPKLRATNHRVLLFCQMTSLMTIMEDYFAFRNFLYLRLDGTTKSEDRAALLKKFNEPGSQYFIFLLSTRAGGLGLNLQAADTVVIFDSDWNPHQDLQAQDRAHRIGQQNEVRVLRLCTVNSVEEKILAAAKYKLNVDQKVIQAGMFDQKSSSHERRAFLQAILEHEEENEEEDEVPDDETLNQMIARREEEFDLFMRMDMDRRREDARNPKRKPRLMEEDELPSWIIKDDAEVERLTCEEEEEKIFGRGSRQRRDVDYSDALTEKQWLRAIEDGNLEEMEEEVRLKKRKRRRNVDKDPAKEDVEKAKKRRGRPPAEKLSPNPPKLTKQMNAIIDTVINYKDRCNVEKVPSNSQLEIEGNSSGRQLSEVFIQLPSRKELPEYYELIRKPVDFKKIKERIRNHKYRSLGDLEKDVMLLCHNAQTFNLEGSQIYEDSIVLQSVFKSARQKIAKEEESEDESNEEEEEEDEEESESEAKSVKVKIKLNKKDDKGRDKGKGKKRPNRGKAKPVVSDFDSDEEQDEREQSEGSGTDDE

Molecule: Cc1ncsc1-c1ccc([C@H](C)NC(=O)[C@@H]2C[C@@H](O)CN2C(=O)[C@@H](c2cc(N3CCN(CCOc4cc(N5C6CCC5CN(c5cc(-c7ccccc7O)nnc5N)C6)ccn4)CC3)no2)C(C)C)cc1 [compound 592, (2S,4R)-1-((2R)-2-(3-(4-(2-((4-(3-(3-amino-6-(2-hydroxyphenyl)pyridazin-4-yl)-3,8-diazabicyclo[3.2.1]octan-8-yl)pyridin-2-yl)oxy)ethyl)piperazin-1-yl)isoxazol-5-yl)-3-methylbutanoyl)-4-hydroxy-N-((S)-1-(4-(4-methylthiazol-5-yl)phenyl)ethyl) pyrrolidine-2-carboxamide]
- Dmax [1]: > 75%
- DC50 (Table 2D, read-out: *DC50): < 0.0025 µM

Molecule: Cc1nccn1-c1ccc([C@H](C)NC(=O)[C@@H]2C[C@@H](O)CN2C(=O)[C@@H](c2cc(OCC#Cc3ccc(O[C@H]4C[C@H](Oc5cc(N6C7CCC6CN(c6cc(-c8ccccc8O)nnc6N)C7)ccn5)C4)cn3)no2)C(C)C)cc1 [compound 234, (2S,4R)-1-((2R)-2-(3-((3-(5-((1r,3R)-3-((4-(3-(3-amino-6-(2-hydroxyphenyl)pyridazin-4-yl)-3,8-diazabicyclo[3.2.1]octan-8-yl)pyridin-2-yl)oxy)cyclobutoxy)pyridin-2-yl)prop-2-yn-1-yl)oxy)isoxazol-5-yl)-3-methylbutanoyl)-4-hydroxy-N-((S)-1-(4-(2-methyl-1H-imidazol-1-yl)phenyl)ethyl)pyrrolidine-2-carboxamide]
- DC50 (read-out: DC50): < 0.0025 µM
- Dmax (tested at the top concentration of between 0.3 and 10 μM, read-out: Dmax (%) (% degraded)): > 75%

Molecule: Cc1ncsc1-c1ccc(CNC(=O)[C@@H]2C[C@@H](O)CN2C(=O)[C@@H](NC(=O)CN2CCN(CCOCCOCCCc3cc(N4C5CCC4CN(c4cc(-c6ccccc6O)nnc4N)C5)ccn3)CC2)C(C)(C)C)cc1 [compound 45, (2S,4R)-1-[(2S)-2-[2-[4-(2-[2-[3-(4-[3-[3-amino-6-(2-hydroxyphenyl)pyridazin-4-yl]-3,8-diazabicyclo[3.2.1]octan-8-yl]pyridin-2-yl)propoxy]ethoxy]ethyl)piperazin-1-yl]acetamido]-3,3-dimethylbutanoyl]-4-hydroxy-N-[[4-(4-methyl-1,3-thiazol-5-yl)phenyl]methyl]pyrrolidine-2-carboxamide]
- DC50 (read-out: DC50): > 0.03 µM
- Dmax [2]: > 75%

Molecule: Cc1ncsc1-c1ccc([C@H](C)NC(=O)[C@@H]2C[C@@H](O)CN2C(=O)[C@H](c2cc(N3CCN(C(C)(C)C4CCN(C[C@H]5C[C@H](Oc6cc(N7C8CCC7CN(c7cc(-c9ccccc9O)nnc7N)C8)ccn6)C5)CC4)CC3)no2)C(C)C)cc1 [compound 714, (2S,4R)-1-((2S)-2-(3-(4-(2-(1-(((1r,3r)-3-((4-(3-(3-amino-6-(2-hydroxyphenyl)pyridazin-4-yl)-3,8-diazabicyclo[3.2.1]octan-8-yl)pyridin-2-yl)oxy)cyclobutyl)methyl)piperidin-4-yl)propan-2-yl)piperazin-1-yl)isoxazol-5-yl)-3-methylbutanoyl)-4-hydroxy-N-((S)-1-(4-(4-methylthiazol-5-yl)phenyl)ethyl) pyrrolidine-2-carboxamide]
- DC50 (read-out: DC50): > 0.03 µM

Molecule: Cc1nccn1-c1ccc([C@H](C)NC(=O)[C@@H]2C[C@@H](O)CN2C(=O)[C@@H](c2cc(N3CCC(CN4CCC(O[C@H]5C[C@H](Oc6cc(N7C8CCC7CN(c7cc(-c9ccccc9O)nnc7N)C8)ccn6)C5)CC4)CC3)no2)C(C)C)cc1 [compound 606, (2S,4R)-1-((2S)-2-(3-(4-((4-((1r,3r)-3-((4-(3-(3-amino-6-(2-hydroxyphenyl)pyridazin-4-yl)-3,8-diazabicyclo[3.2.1]octan-8-yl)pyridin-2-yl)oxy)cyclobutoxy)piperidin-1-yl)methyl)piperidin-1-yl)isoxazol-5-yl)-3-methylbutanoyl)-4-hydroxy-N-((S)-1-(4-(2-methyl-1H-imidazol-1-yl)phenyl)ethyl)pyrrolidine-2-carboxamide]
- Dmax [1]: > 75%
- DC50 (Table 2D, read-out: *DC50): 0.01 to 0.03 µM

Molecule: Cc1ncsc1-c1ccc([C@H](C)NC(=O)[C@@H]2C[C@@H](O)CN2C(=O)[C@H](c2onc(OCCN3CCN(CCOc4cc(N5C6CCC5CN(c5cc(-c7ccccc7O)nnc5N)C6)ccn4)CC3)c2Cl)C(C)C)cc1 [compound 54, (2S,4R)-1-((2S)-2-(3-(2-(4-(2-((4-(3-(3-amino-6-(2-hydroxyphenyl)pyridazin-4-yl)-3,8-diazabicyclo[3.2.1]octan-8-yl)pyridin-2-yl)oxy)ethyl)piperazin-1-yl)ethoxy)-4-chloroisoxazol-5-yl)-3-methylbutanoyl)-4-hydroxy-N-((S)-1-(4-(4-methylthiazol-5-yl)phenyl)ethyl)pyrrolidine-2-carboxamide]
- DC50 (read-out: DC50): > 0.03 µM
- Dmax [2]: > 75%

Molecule: (2S,4R)-1-((2R)-2-(3-(2-(4-((1r,3R)- 3-((4-(3-(3-amino-6-(2- hydroxyphenyl)pyridazin-4-yl)-3,8- diazabicyclo[3.2.1]octan-8- yl)pyridin-2- yl)oxy)cyclobutoxy)piperidin-1- yl)ethoxy)isoxazol-5-yl)-3- methylbutanoyl)-4-hydroxy-N-(4-(4- methylthiazol-5- yl)benzyl)pyrrolidine-2-carboxamide [compound 146]
- DC50 (read-out: DC50): < 0.0025 µM
- Dmax (%) (% degraded) (when tested at the top concentration of between 0.3 and 10 μM): A (A > 75)

Molecule: Cc1ncsc1-c1ccc([C@@H](NC(=O)[C@@H]2C[C@@H](O)CN2C(=O)[C@H](c2cc(N3CCC(CN4CCC(O[C@H]5C[C@H](Oc6cc(N7C8CCC7CN(c7cc(-c9ccccc9O)nnc7N)C8)ccn6)C5)CC4)CC3)no2)C(C)C)C(=O)N(C)C2CCC2)cc1 [compound 611, (2S,4R)-1-((2S)-2-(3-(4-((4-((1r,3r)-3-((4-(3-(3-amino-6-(2-hydroxyphenyl)pyridazin-4-yl)-3,8-diazabicyclo[3.2.1]octan-8-yl)pyridin-2-yl)oxy)cyclobutoxy)piperidin-1-yl)methyl)piperidin-1-yl)isoxazol-5-yl)-3-methylbutanoyl)-N-((R)-2-(cyclobutyl(methyl)amino)-1-(4-(4-methylthiazol-5-yl)phenyl)-2-oxoethyl)-4-hydroxypyrrolidine-2-carboxamide]
- DC50 (Table 2D, read-out: *DC50): > 0.03 µM

Molecule: Cc1ncsc1-c1ccc([C@H](CCCC(N)=O)NC(=O)[C@@H]2C[C@@H](O)CN2C(=O)[C@@H](c2cc(OCCN3CCC(O[C@H]4C[C@H](Oc5cc(N6C7CCC6CN(c6cc(-c8ccccc8O)nnc6N)C7)ccn5)C4)CC3)no2)C(C)C)cc1 [compound 556, (2S,4R)-N-((S)-5-amino-1-(4-(4-methylthiazol-5-yl)phenyl)-5-oxopentyl)-1-((2R)-2-(3-(2-(4-((1r,3R)-3-((4-(3-(3-amino-6-(2-hydroxyphenyl)pyridazin-4-yl)-3,8-diazabicyclo[3.2.1]octan-8-yl)pyridin-2-yl)oxy)cyclobutoxy)piperidin-1-yl)ethoxy)isoxazol-5-yl)-3-methylbutanoyl)-4-hydroxypyrrolidine-2-carboxamide]
- Dmax [1]: > 75%
- DC50 (Table 2D, read-out: *DC50): < 0.0025 µM

Molecule: Cc1ncsc1-c1ccc([C@H](CCC#N)NC(=O)[C@@H]2C[C@@H](O)CN2C(=O)[C@@H](c2cc(N3CCC(CN4CCC(O[C@H]5C[C@H](Oc6cc(N7C8CCC7CN(c7cc(-c9ccccc9O)nnc7N)C8)ccn6)C5)CC4)CC3)no2)C(C)C)cc1 [compound 672, (2S,4R)-1-((2R)-2-(3-(4-((4-((1r,3r)-3-((4-(3-(3-amino-6-(2-hydroxyphenyl)pyridazin-4-yl)-3,8-diazabicyclo[3.2.1]octan-8-yl)pyridin-2-yl)oxy)cyclobutoxy)piperidin-1-yl)methyl)piperidin-1-yl)isoxazol-5-yl)-3-methylbutanoyl)-N-((S)-3-cyano-1-(4-(4-methylthiazol-5-yl)phenyl)propyl)-4-hydroxypyrrolidine-2-carboxamide]
- DC50 (read-out: DC50): < 0.0025 µM
- Dmax (read-out: Dmax (% degraded)): > 75%

From patent US12539292B2, “BRM targeting compounds and associated methods of use” (Arvinas Operations, Inc., priority 2018, dated 2026)
